Several values for one entry are separate records, joined by “and”; a condition that tells them apart may be missing. Equal values may be shown once. Inconclusive results and toxic doses are left out.
Tested on: BDF1 mice, P388 leukemia ip, median survival T/C
Assay: NCI In Vivo Anticancer Drug Screen. Data for tumor model P388 Leukemia (intraperitoneal) in B6D2F1 (BDF1) mice
Settings: endpoint: median survival time, higher = longer survival
Outline: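 Mice carrying the transplantable tumour receive compound or vehicle. Survival is followed in each arm, and the treated measure is divided by the vehicle measure.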

[1] = dose: 50.0 mg/kg/injection, schedule: Q04DX003 (ip), vehicle: saline
[2] = dose: 100.0 mg/kg/injection, schedule: Q04DX003 (ip), vehicle: saline
[3] = dose: 200.0 mg/kg/injection, schedule: Q04DX003 (ip), vehicle: saline
[4] = dose: 1.0 mg/kg/injection, schedule: Q01DX009 (ip), vehicle: saline
[5] = dose: 6.25 mg/kg/injection, schedule: Q01DX009 (ip), vehicle: saline
[6] = dose: 100.0 mg/kg/injection, schedule: Q01DX009 (ip), vehicle: saline with Tween-80
[7] = dose: 200.0 mg/kg/injection, schedule: Q01DX009 (ip), vehicle: saline with Tween-80
[8] = dose: 50.0 mg/kg/injection, schedule: Q01DX009 (ip), vehicle: saline
[9] = dose: 150.0 mg/kg/injection, schedule: Q04DX003 (ip), vehicle: saline

Cc1nc2cnn(C)c2nc1C
T/C [1]: 114 % of control | T/C [2]: 113 % of control | T/C [3]: 107 % of control | T/C (dose: 400.0 mg/kg/injection, schedule: Q04DX003 (ip), vehicle: saline): 88 % of control

N#Cc1ccc(NC(=O)N(CCCl)N=O)cc1
T/C (dose: 0.29 mg/kg/injection, schedule: Q01DX009 (ip), vehicle: saline): 122 % of control | T/C (dose: 0.37 mg/kg/injection, schedule: Q01DX009 (ip), vehicle: Klucel (hydroxypropylcellulose) (HPC)): 116 % of control | T/C (dose: 0.44 mg/kg/injection, schedule: Q01DX009 (ip), vehicle: saline): 122 % of control | T/C (dose: 0.5 mg/kg/injection, schedule: Q04DX003 (ip), vehicle: Klucel (hydroxypropylcellulose) (HPC)): 103 % of control | T/C (dose: 0.8 mg/kg/injection, schedule: Q04DX003 (ip), vehicle: Klucel (hydroxypropylcellulose) (HPC)): 107 % of control | T/C [4]: 162 % of control | T/C (dose: 1.56 mg/kg/injection, schedule: Q01DX009 (ip), vehicle: saline): 153 % of control and 202 % of control | T/C (dose: 2.0 mg/kg/injection, schedule: Q04DX003 (ip), vehicle: Klucel (hydroxypropylcellulose) (HPC)): 183 % of control | T/C (dose: 3.0 mg/kg/injection, schedule: Q01DX009 (ip), vehicle: Klucel (hydroxypropylcellulose) (HPC)): 187 % of control | T/C (dose: 3.0 mg/kg/injection, schedule: Q04DX003 (ip), vehicle: Klucel (hydroxypropylcellulose) (HPC)): 170 % of control | T/C (dose: 3.12 mg/kg/injection, schedule: Q01DX009 (ip), vehicle: Klucel (hydroxypropylcellulose) (HPC)): 175 % of control | T/C (dose: 3.12 mg/kg/injection, schedule: Q01DX009 (ip), vehicle: saline): 194 % of control | T/C (dose: 5.0 mg/kg/injection, schedule: Q04DX003 (ip), vehicle: Klucel (hydroxypropylcellulose) (HPC)): 191 % of control and 200 % of control and 215 % of control | T/C (dose: 6.25 mg/kg/injection, schedule: Q01DX009 (ip), vehicle: Klucel (hydroxypropylcellulose) (HPC)): 204 % of control | T/C [5]: 219 % of control | T/C (dose: 8.0 mg/kg/injection, schedule: Q04DX003 (ip), vehicle: Klucel (hydroxypropylcellulose) (HPC)): 185 % of control and 210 % of control | T/C (dose: 12.0 mg/kg/injection, schedule: Q04DX003 (ip), vehicle: Klucel (hydroxypropylcellulose) (HPC)): 245 % of control and 220 % of control | T/C (dose: 12.5 mg/kg/injection, schedule: Q01DX009 (ip), vehicle: Klucel (hydroxypropylcellulose) (HPC)): 100 % of control | T/C (dose: 12.5 mg/kg/injection, schedule: Q01DX009 (ip), vehicle: saline): 102 % of control | T/C (dose: 12.5 mg/kg/injection, schedule: Q04DX003 (ip), vehicle: Klucel (hydroxypropylcellulose) (HPC)): 222 % of control | T/C (dose: 18.0 mg/kg/injection, schedule: Q04DX003 (ip), vehicle: Klucel (hydroxypropylcellulose) (HPC)): 265 % of control and 110 % of control | T/C (dose: 25.0 mg/kg/injection, schedule: Q04DX003 (ip), vehicle: Klucel (hydroxypropylcellulose) (HPC)): 109 % of control

c1cc[c]([Sn]([c]2ccccc2)([c]2ccccc2)[n]2cncn2)cc1
T/C (dose: 3.12 mg/kg/injection, schedule: Q01DX009 (ip), vehicle: saline with Tween-80): 106 % of control | T/C (dose: 6.25 mg/kg/injection, schedule: Q01DX009 (ip), vehicle: saline with Tween-80): 106 % of control

CC1(C)C(=O)C2(C(=O)O)CCC1C2 (stereo not given)
T/C [6]: 100 % of control | T/C (dose: 100.0 mg/kg/injection, schedule: Q04DX003 (ip), vehicle: saline with Tween-80): 95 % of control | T/C [7]: 95 % of control | T/C (dose: 200.0 mg/kg/injection, schedule: Q04DX003 (ip), vehicle: saline with Tween-80): 109 % of control | T/C (dose: 400.0 mg/kg/injection, schedule: Q01DX009 (ip), vehicle: saline with Tween-80): 100 % of control | T/C (dose: 400.0 mg/kg/injection, schedule: Q04DX003 (ip), vehicle: saline with Tween-80): 100 % of control

CCNC1(c2ccc(Cl)cc2)CCCCC1=O (stereo not given)
T/C (dose: 25.0 mg/kg/injection, schedule: Q01DX009 (ip), vehicle: saline): 100 % of control | T/C [8]: 95 % of control and 100 % of control | T/C [1]: 100 % of control | T/C (dose: 100.0 mg/kg/injection, schedule: Q01DX009 (ip), vehicle: saline): 86 % of control | T/C [2]: 95 % of control

CC1CC(C)(C)CC2CC(C(=O)O)(C(=O)O)CC12 (stereo not given)
T/C (dose: 25.0 mg/kg/injection, schedule: Q04DX003 (ip), vehicle: saline sonified): 110 % of control | T/C (dose: 50.0 mg/kg/injection, schedule: Q04DX003 (ip), vehicle: saline sonified): 100 % of control | T/C (dose: 100.0 mg/kg/injection, schedule: Q04DX003 (ip), vehicle: saline sonified): 100 % of control

CCCCCCCCCCCC[N+](C)(C)CC(O)C[N+](C)(C)CCCCCCCCCCCC
T/C (dose: 3.13 mg/kg/injection, schedule: Q01DX009 (ip), vehicle: saline): 102 % of control | T/C [5]: 107 % of control

FC(F)(F)C(Cl)Br (stereo not given)
T/C (dose: 100.0 mg/kg/injection, schedule: Q01DX001 (ip), vehicle: saline): 90 % of control | T/C [9]: 86 % of control | T/C (dose: 200.0 mg/kg/injection, schedule: Q01DX001 (ip), vehicle: saline): 90 % of control | T/C (dose: 225.0 mg/kg/injection, schedule: Q04DX003 (ip), vehicle: saline): 100 % of control | T/C (dose: 335.0 mg/kg/injection, schedule: Q04DX003 (ip), vehicle: saline): 86 % of control | T/C (dose: 400.0 mg/kg/injection, schedule: Q01DX001 (ip), vehicle: saline): 100 % of control

O=C1NC(c2cccc(OCc3ccccc3)c2)Nc2ccccc21 (stereo not given)
T/C (dose: 3.13 mg/kg/injection, schedule: Q01DX009 (ip), vehicle: Klucel (hydroxypropylcellulose) (HPC)): 97 % of control | T/C (dose: 25.0 mg/kg/injection, schedule: Q01DX009 (ip), vehicle: Klucel (hydroxypropylcellulose) (HPC)): 94 % of control and 110 % of control | T/C (dose: 50.0 mg/kg/injection, schedule: Q01DX009 (ip), vehicle: Klucel (hydroxypropylcellulose) (HPC)): 108 % of control | T/C (dose: 62.5 mg/kg/injection, schedule: Q01DX009 (ip), vehicle: Klucel (hydroxypropylcellulose) (HPC)): 150 % of control | T/C (dose: 100.0 mg/kg/injection, schedule: Q01DX009 (ip), vehicle: Klucel (hydroxypropylcellulose) (HPC)): 120 % of control | T/C (dose: 250.0 mg/kg/injection, schedule: Q01DX009 (ip), vehicle: Klucel (hydroxypropylcellulose) (HPC)): 166 % of control

CCCCCCCC[N+](C)(CCCCCCCC)CCCCCCCC
T/C (dose: 0.12 mg/kg/injection, schedule: Q01DX009 (ip), vehicle: saline): 108 % of control | T/C (dose: 0.18 mg/kg/injection, schedule: Q01DX009 (ip), vehicle: saline): 116 % of control | T/C (dose: 0.28 mg/kg/injection, schedule: Q01DX009 (ip), vehicle: saline): 166 % of control | T/C (dose: 0.42 mg/kg/injection, schedule: Q01DX009 (ip), vehicle: saline): 95 % of control and 100 % of control | T/C (dose: 0.43 mg/kg/injection, schedule: Q01DX009 (ip), vehicle: saline): 155 % of control | T/C (dose: 0.96 mg/kg/injection, schedule: Q01DX009 (ip), vehicle: saline): 108 % of control and 121 % of control | T/C [4]: 100 % of control | T/C (dose: 1.3 mg/kg/injection, schedule: Q01DX009 (ip), vehicle: saline): 112 % of control | T/C (dose: 2.0 mg/kg/injection, schedule: Q01DX009 (ip), vehicle: saline): 100 % of control | T/C (dose: 2.1 mg/kg/injection, schedule: Q01DX009 (ip), vehicle: saline): 120 % of control | T/C (dose: 2.32 mg/kg/injection, schedule: Q04DX003 (ip), vehicle: saline): 104 % of control | T/C (dose: 3.1 mg/kg/injection, schedule: Q01DX009 (ip), vehicle: saline): 95 % of control | T/C (dose: 4.65 mg/kg/injection, schedule: Q04DX003 (ip), vehicle: saline): 95 % of control | T/C (dose: 6.5 mg/kg/injection, schedule: Q01DX001 (ip), vehicle: saline): 100 % of control | T/C (dose: 13.0 mg/kg/injection, schedule: Q01DX001 (ip), vehicle: saline): 100 % of control

O=P(N1CC1)(N1CC1)N1CCc2ccccc21
T/C (dose: 9.0 mg/kg/injection, schedule: Q01DX009 (ip), vehicle: saline): 91 % of control | T/C (dose: 13.0 mg/kg/injection, schedule: Q01DX009 (ip), vehicle: saline): 104 % of control | T/C (dose: 20.0 mg/kg/injection, schedule: Q01DX009 (ip), vehicle: saline): 104 % of control | T/C (dose: 30.0 mg/kg/injection, schedule: Q04DX003 (ip), vehicle: saline): 114 % of control | T/C (dose: 33.0 mg/kg/injection, schedule: Q01DX009 (ip), vehicle: saline): 157 % of control | T/C (dose: 44.0 mg/kg/injection, schedule: Q04DX003 (ip), vehicle: saline): 117 % of control and 119 % of control | T/C [8]: 166 % of control and 173 % of control | T/C (dose: 75.0 mg/kg/injection, schedule: Q01DX009 (ip), vehicle: saline): 176 % of control | T/C [2]: 170 % of control and 176 % of control | T/C [9]: 255 % of control and 195 % of control | T/C [3]: 96 % of control

C=CCCC/C(C)=N/NS(=O)(=O)c1ccc(C)cc1
T/C (dose: 50.0 mg/kg/injection, schedule: Q01DX009 (ip), vehicle: saline with Tween-80): 109 % of control | T/C [6]: 109 % of control | T/C [7]: 95 % of control
